From PMC9898996 (Bioorganic & medicinal chemistry, 2022)

How the values were obtained:
α-syn = α-syn (Homo sapiens, UniProt P37840); test: ThT assay of α-syn aggregation induced by seeding with 0.5% PFFs; format: biochemical; conditions: 1.25 mg/mL α-syn + 0.5% PFFs, 30D without shaking, drug 172.9 μM
PC12 cells = test: MTT viability of PC12 cells treated with α-syn seeded samples; format: cell-based; conditions: samples collected at 0D; drug 20 μM, 24 h
human D2 receptor [1] = target: T1, human D2 receptor (Homo sapiens, UniProt P14416); conditions: [35S]GTPγS, D2 receptors
rat D2L receptor = rat D2L receptor (Rattus norvegicus, UniProt P61169); format: binding
human D2 receptor [2] = target: T1, human D2 receptor

rat D2L receptor, sequence (P61169 whole entry): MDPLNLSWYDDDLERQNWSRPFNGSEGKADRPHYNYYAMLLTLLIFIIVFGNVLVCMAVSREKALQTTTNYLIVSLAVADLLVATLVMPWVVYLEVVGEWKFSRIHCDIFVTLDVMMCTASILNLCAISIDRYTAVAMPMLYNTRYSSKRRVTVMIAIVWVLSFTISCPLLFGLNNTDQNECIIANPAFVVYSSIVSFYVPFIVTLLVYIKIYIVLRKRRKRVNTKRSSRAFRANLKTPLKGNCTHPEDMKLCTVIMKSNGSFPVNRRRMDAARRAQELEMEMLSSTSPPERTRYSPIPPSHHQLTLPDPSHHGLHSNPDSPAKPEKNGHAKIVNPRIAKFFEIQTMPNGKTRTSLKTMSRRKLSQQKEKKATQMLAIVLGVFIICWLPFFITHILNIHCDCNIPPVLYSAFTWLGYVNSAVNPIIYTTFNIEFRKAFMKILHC
T1 sequence (P14416 whole entry): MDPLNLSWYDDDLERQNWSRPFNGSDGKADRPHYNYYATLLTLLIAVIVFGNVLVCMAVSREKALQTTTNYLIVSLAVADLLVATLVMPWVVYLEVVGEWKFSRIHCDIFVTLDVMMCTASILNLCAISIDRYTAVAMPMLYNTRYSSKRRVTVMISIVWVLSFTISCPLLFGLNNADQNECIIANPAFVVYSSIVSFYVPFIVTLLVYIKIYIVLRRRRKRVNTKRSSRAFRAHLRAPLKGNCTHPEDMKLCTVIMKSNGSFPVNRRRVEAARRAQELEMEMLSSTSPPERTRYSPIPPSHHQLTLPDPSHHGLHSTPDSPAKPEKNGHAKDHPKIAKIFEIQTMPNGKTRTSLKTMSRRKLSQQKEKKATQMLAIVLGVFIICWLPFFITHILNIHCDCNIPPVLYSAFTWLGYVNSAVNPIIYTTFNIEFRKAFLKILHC

In the case of `CCCN(CCc1cc(O)c(CCN(CCC)[C@H]2CCc3nc(N)sc3C2)cc1O)[C@H]1CCc2nc(N)sc2C1` [Compound D-673, 2,5-bis(2-(((S)-2-amino-4,5,6,7-tetrahydrobenzo[d]thiazol-6-yl)(propyl)amino)-ethyl)benzene-1,4-diol], the “Inhibition of α-syn aggregation (ThT signal)” value (α-syn) is reported as “inhibited the aggregation completely”, the “Toxicity of compound by itself (PC12 viability, MTT)” value (PC12 cells) is reported as “shows toxicity” and the “D2 functional potency compared to pramipexole” value (human D2 receptor [1]) is reported as “more than 7 fold”.
`Br.Br.CCCN(CCc1cc(O)c(CCN(CCC)[C@H]2CCc3c(O)cccc3C2)cc1O)[C@H]1CCc2c(O)cccc2C1` [Compound D-666, 2,5-Bis(2-(((S)-5-hydroxy-1,2,3,4-tetrahydronaphthalen-2-yl)(propyl)amino)ethyl)benzene-1,4-diol] was tested, and the “Inhibition of α-syn aggregation (ThT signal)” value (α-syn) was “inhibited the aggregation completely” and the “Toxicity of compound by itself (PC12 viability, MTT)” value (PC12 cells) was “do not see such toxicity”.
For `CCCN(CCc1ccc(CCN(CCC)[C@H]2CCc3c(O)cccc3C2)cc1)[C@H]1CCc2c(O)cccc2C1` [Compound D-382, (6s,6’s)-6,6’-(2,2’-(1,4-phenylene)bis(ethane-2,1-diyl))bis(propylazanediyl)bis(5,6,7,8-tetrahydronaphthalen-1-ol)], the “Increase in affinity for D2 receptors compared to D-381” value (rat D2L receptor; binding, D2 receptors) was “greater than threefold increase”.
`CCCN(CCC)C1CCc2c(O)cccc2C1` (single isomer, unassigned; (-)) [(−)-5-OH-DPAT, 5-OH-DPAT] showed an Emax (human D2 receptor [2]) of 80 ± 4%.
`CCCN(CC(=O)N1CCN(C(=O)CN(CCC)[C@H]2CCc3c(O)cccc3C2)CC1)[C@H]1CCc2c(O)cccc2C1` [Compound D-380, (s)-1,1’-(piperazine-1,4-diyl)bis(2-(((s)-5-hydroxy-1,2,3,4-tetrahydronaphthalen-2-yl)(propyl)amino)ethanone)] was tested, and the “Activity at DA receptors (binding, in words)” value (rat D2L receptor; D2/D3 receptor binding) was “little to no activity” and the “Inhibition of [3H]spiroperidol binding, D2L” value (rat D2L receptor; at 100 μM, cloned rat D2L in HEK-293 cells) was “No Inhibition at 100 μM”.
